Reference: PMC7002685, “Inhibition of vascular calcification by inositol phosphates derivatized with ethylene glycol oligomers” (Nature Communications, 2020)

Key:
[1] = uremic rats, 4 h i.v. infusion of 50 mg/kg; cited from earlier work
[2] = tested on: Calcium Channel L-Type, Benzothiazepine; assay: Off-target 214510; format: binding, Rat; settings: 10 µM
Method: (§1) The potential off-target activity of 10 µM (OEG2)2-IP4 was assessed against a panel of 87 enzymes, receptors, or ion channels that are used in standard safety pharmacology screens.
(§2) 3.2. Off-target screening assay
(§3) The experiments were conducted by a contract research organization (Eurofins Panlabs Discovery Services Taiwan, Ltd.) and details on the respective assays can be retrieved via the catalog number provided in Supplementary Table 11 from the company’s webpage
(§4) (https://www.eurofinsdiscoveryservices.com/). […]
(§5) At sacrifice the left tibia of animals of the rat model with dietary adenine/high-phosphate-induced uremia and VC was collected, fixed with 70% v/v EtOH and embedded in methyl methacrylate. The trabecular bone compartment is known to be the most metabolic active i.e. actively re-structured bone compartment in CKD. Therefore, histomorphometric and micro-computed tomography (µCT) analysis of bone was performed on the trabecular compartment. Tibial sections were Goldner-stained for histomorphometric analysis of the proximal metaphysis using the AxioVision Release 4.5 software, as […]
(§6) described previously5. […]

[3] = molecular target: T1, Bradykinin B2 (Homo sapiens, UniProt P30411); assay: Off-target 212320; format: binding
T1 construct: purchased Eurofins Panlabs Discovery Services Taiwan, Ltd
Method: as §1, §2, §3, §4, §5, §6

[4] = molecular target: T2, Histamine H2 (Homo sapiens, UniProt P25021); assay: Off-target 239710; format: binding
T2 construct: purchased Eurofins Panlabs Discovery Services Taiwan, Ltd
Method: as §1, §2, §3, §4, §5, §6

[5] = molecular target: T3, Angiotensin AT1 (Homo sapiens, UniProt P30556); assay: Off-target 210030; format: binding
T3 construct: purchased Eurofins Panlabs Discovery Services Taiwan, Ltd
T3 sequence (P30556 whole entry): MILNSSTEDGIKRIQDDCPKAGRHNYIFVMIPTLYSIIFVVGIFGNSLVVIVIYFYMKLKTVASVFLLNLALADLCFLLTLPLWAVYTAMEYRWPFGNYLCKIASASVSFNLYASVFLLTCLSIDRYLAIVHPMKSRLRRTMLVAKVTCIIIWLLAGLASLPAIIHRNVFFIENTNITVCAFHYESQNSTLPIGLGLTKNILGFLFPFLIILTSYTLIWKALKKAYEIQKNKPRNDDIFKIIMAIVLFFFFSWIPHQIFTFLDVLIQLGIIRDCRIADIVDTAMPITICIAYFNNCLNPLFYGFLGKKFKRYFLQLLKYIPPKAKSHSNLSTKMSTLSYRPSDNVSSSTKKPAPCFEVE
Method: as §1, §2, §3, §4, §5, §6

[6] = molecular target: Glutamate, NMDA, Glycine (Rattus norvegicus, UniProt P35439); assay: Off-target 232910; format: binding
Method: as §1, §2
(§7) The experiments were conducted by a contract research organization (Eurofins Panlabs Discovery
(§8) Services Taiwan, Ltd.) and details on the respective assays can be retrieved via the catalog number
(§9) provided in Supplementary Table 11 from the company’s webpage
as §4

[7] = molecular target: T4, Monoamine Oxidase MAO-B (Homo sapiens, UniProt P27338); assay: Off-target 140120; format: biochemical
T4 construct: purchased Eurofins Panlabs Discovery Services Taiwan, Ltd
T4 sequence (P27338 whole entry): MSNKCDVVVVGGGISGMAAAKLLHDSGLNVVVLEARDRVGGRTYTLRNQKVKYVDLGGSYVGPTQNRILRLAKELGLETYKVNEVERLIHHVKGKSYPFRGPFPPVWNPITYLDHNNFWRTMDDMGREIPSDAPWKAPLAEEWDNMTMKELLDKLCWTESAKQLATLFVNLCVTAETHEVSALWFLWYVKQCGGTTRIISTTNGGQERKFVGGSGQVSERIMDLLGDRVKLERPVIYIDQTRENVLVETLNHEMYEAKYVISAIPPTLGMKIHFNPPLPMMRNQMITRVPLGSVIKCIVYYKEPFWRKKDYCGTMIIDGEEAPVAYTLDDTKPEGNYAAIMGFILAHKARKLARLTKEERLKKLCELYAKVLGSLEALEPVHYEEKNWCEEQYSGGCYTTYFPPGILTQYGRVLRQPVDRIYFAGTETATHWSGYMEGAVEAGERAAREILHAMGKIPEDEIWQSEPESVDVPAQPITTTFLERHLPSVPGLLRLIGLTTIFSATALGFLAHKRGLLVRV
Method: as §1, §2, §3, §4, §5, §6

[8] = molecular target: T5, Dopamine D1 (Homo sapiens, UniProt P21728); assay: Off-target 219500 (D1); format: binding
T5 construct: purchased Eurofins Panlabs Discovery Services Taiwan, Ltd
T5 sequence (P21728 whole entry): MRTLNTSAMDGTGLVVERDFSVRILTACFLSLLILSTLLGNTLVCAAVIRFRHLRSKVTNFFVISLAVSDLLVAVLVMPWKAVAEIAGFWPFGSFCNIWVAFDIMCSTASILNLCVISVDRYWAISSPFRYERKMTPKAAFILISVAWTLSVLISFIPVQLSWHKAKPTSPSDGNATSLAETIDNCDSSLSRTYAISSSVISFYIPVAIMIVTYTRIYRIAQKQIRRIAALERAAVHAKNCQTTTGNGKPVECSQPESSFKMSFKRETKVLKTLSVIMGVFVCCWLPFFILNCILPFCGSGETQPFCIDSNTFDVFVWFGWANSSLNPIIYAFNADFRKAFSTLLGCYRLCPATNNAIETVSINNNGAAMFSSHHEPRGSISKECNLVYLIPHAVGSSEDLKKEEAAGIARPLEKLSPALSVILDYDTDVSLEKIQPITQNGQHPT
Method: as §1, §2, §7, §8, §9, §4

[9] = tested on: bone; assay: Tibial bone histomorphometry, adenine model; format: in vivo, male Wistar rats
Method: At sacrifice the left tibia of animals of the rat model with dietary adenine/high-phosphate-induced uremia and VC was collected, fixed with 70% v/v EtOH and embedded in methyl methacrylate. The trabecular bone compartment is known to be the most metabolic active i.e. actively re-structured bone compartment in CKD. Therefore, histomorphometric and micro-computed tomography (µCT) analysis of bone was performed on the trabecular compartment. Tibial sections were Goldner-stained for histomorphometric analysis of the proximal metaphysis using the AxioVision Release 4.5 software, as described previously5. The total bone area (as percentage of total tissue area), osteoid area (as percentage of total bone area), and mineralized bone area (as percentage of total tissue area) were calculated from the primary measurements. Images of osteoclast and osteoblast were taken (Leica

[10] = tested on: Transporter, Adenosine; assay: Off-target 202000; format: binding, Guinea pig; settings: 10 µM
Method: as §1, §2, §7, §8, §9, §4

[11] = molecular target: T6, Adenosine A2A (Homo sapiens, UniProt P29274); assay: Off-target 200610; format: binding
T6 construct: purchased Eurofins Panlabs Discovery Services Taiwan, Ltd
T6 sequence (P29274 whole entry): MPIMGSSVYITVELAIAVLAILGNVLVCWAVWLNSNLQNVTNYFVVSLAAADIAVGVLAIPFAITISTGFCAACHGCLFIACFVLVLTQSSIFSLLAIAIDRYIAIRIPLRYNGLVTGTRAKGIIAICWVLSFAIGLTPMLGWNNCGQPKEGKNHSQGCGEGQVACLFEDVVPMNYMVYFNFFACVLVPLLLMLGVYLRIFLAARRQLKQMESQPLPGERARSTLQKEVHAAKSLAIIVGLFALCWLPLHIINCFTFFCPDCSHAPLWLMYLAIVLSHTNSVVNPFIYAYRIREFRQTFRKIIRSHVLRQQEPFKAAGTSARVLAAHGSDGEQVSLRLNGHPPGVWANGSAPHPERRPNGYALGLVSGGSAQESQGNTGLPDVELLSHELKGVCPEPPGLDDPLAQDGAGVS
Method: as §1, §2, §3, §4, §5, §6

[12] = molecular target: T7, Adenosine A1 (Homo sapiens, UniProt P30542); assay: Off-target 200510; format: binding
T7 construct: purchased Eurofins Panlabs Discovery Services Taiwan, Ltd
Method: as §1, §2, §7, §8, §9, §4

[13] = tested on: GABAA, Flunitrazepam, Central; assay: Off-target 226600; format: binding, Rat; settings: 10 µM
Method: as §1, §2, §7, §8, §9, §4

[14] = molecular target: T8, Transporter, Dopamine (DAT) (Homo sapiens, UniProt Q01959); assay: Off-target 220320; format: binding
T8 construct: purchased Eurofins Panlabs Discovery Services Taiwan, Ltd
T8 sequence (Q01959 whole entry): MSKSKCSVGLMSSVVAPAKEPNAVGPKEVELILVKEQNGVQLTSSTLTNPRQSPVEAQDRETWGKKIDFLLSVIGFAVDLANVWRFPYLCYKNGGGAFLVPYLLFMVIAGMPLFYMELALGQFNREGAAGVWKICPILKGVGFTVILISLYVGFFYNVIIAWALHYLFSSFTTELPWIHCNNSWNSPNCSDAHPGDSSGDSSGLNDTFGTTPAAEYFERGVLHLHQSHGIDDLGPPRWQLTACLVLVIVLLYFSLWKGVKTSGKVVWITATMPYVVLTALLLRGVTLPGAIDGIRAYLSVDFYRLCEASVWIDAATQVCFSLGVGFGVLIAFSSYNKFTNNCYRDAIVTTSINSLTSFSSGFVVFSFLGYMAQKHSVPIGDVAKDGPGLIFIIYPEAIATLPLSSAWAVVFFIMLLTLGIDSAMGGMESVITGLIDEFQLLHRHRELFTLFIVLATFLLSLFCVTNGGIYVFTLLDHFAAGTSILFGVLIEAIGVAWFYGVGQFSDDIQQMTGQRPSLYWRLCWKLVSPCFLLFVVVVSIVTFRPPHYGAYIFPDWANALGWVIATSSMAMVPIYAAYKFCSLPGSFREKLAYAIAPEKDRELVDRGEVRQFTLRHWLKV
Method: as §1, §2, §7, §8, §9, §4

[15] = molecular target: T9, Peptidase, Angiotensin Converting Enzyme (Oryctolagus cuniculus, UniProt P12822); assay: Off-target 107300; format: biochemical, Rabbit
T9 construct: purchased Eurofins Panlabs Discovery Services Taiwan, Ltd
Method: as §1, §2, §7, §8, §9, §4

[16] = molecular target: T10, Protein Tyrosine Kinase, LCK (Homo sapiens, UniProt P06239); assay: Off-target 176020; format: biochemical
T10 construct: purchased Eurofins Panlabs Discovery Services Taiwan, Ltd
T10 sequence (P06239 whole entry): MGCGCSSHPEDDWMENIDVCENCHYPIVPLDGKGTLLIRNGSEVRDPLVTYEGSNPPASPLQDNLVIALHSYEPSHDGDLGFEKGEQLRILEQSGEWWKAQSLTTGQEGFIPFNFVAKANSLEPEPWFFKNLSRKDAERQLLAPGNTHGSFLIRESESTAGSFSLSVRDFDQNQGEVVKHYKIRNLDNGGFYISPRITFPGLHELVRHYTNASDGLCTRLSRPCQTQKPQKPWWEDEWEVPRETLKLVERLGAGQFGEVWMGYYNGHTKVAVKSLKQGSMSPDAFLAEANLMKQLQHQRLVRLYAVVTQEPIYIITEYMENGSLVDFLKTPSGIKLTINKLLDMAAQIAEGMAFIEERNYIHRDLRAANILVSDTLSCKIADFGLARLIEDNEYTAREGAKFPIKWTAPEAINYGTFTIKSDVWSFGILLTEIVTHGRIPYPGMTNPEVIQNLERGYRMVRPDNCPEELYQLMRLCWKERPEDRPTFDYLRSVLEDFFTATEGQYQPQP
Method: as §1, §2, §7, §8, §9, §4

[17] = molecular target: T11, α2B (Homo sapiens, UniProt P18089); assay: Off-target 203710; format: binding
T11 construct: purchased Eurofins Panlabs Discovery Services Taiwan, Ltd
T11 sequence (P18089 whole entry): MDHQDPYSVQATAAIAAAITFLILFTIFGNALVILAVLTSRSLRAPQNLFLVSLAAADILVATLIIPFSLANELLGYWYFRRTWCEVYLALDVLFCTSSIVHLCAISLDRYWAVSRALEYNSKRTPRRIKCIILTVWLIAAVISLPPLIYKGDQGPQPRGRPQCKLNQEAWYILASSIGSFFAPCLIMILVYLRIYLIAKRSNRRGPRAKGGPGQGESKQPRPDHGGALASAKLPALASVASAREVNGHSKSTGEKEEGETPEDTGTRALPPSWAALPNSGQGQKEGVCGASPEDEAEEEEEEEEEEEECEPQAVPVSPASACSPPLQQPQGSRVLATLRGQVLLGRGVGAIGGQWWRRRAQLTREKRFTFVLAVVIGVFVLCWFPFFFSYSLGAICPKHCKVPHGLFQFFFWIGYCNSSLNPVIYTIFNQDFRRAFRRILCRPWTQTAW
Method: as §1, §2, §7, §8, §9, §4

[18] = tested on: GABAA, Ro-15-1788, Hippocampus; assay: Off-target 226630; format: binding, Rat; settings: 10 µM
Method: as §1, §2, §7, §8, §9, §4

[19] = molecular target: T12, Histamine H1 (Homo sapiens, UniProt P35367); assay: Off-target 239610; format: binding
T12 construct: purchased Eurofins Panlabs Discovery Services Taiwan, Ltd
T12 sequence (P35367 whole entry): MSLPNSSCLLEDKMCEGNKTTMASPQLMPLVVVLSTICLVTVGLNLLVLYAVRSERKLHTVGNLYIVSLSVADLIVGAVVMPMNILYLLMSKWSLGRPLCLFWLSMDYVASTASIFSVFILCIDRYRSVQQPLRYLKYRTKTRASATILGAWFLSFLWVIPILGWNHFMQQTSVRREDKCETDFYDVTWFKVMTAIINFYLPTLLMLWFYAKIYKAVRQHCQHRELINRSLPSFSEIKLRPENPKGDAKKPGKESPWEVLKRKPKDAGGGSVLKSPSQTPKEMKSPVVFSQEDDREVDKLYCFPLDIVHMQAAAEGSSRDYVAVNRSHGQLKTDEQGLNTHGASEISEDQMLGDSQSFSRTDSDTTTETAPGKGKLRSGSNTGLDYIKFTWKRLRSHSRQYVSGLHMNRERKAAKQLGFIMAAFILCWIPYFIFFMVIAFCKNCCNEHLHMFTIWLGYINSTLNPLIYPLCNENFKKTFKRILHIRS
Method: as §1, §2, §3, §4, §5, §6

[20] = tested on: Glutamate, NMDA, Agonism; assay: Off-target 232810; format: binding, Rat; settings: 10 µM
Method: as §1, §2, §3, §4, §5, §6

[21] = molecular target: T13, GABAB1A (Homo sapiens, UniProt Q9UBS5); assay: Off-target 228610; format: binding
T13 construct: purchased Eurofins Panlabs Discovery Services Taiwan, Ltd
Method: as §1, §2, §7, §8, §9, §4

[22] = VSMC viability (MTS), compounds only; format: cell-based, human; settings: human, compound only, read-out: VSMC viability (MTS), % of medium control
[23] = molecular target: T14, Opiate δ1 (OP1, DOP) (Homo sapiens, UniProt P41143); assay: Off-target 260130; format: binding
T14 construct: purchased Eurofins Panlabs Discovery Services Taiwan, Ltd
T14 sequence (P41143 whole entry): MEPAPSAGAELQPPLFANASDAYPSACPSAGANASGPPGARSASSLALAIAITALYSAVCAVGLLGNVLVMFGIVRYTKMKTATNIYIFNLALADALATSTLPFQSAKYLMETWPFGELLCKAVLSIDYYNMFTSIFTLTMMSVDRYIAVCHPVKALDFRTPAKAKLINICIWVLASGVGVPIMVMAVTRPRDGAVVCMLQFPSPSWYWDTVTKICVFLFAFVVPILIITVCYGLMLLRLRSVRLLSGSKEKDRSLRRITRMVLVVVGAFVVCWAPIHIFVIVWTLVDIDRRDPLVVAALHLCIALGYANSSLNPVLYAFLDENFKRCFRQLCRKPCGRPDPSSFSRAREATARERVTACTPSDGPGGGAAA
Method: as §1, §2, §7, §8, §9, §4

[24] = molecular target: T15, Cholecystokinin CCK1 (CCKA) (Homo sapiens, UniProt P32238); assay: Off-target 218030; format: binding
T15 construct: purchased Eurofins Panlabs Discovery Services Taiwan, Ltd
Method: as §1, §2, §3, §4, §5, §6

[25] = molecular target: T16, Transporter, GABA (Rattus norvegicus, UniProt P23978); assay: Off-target 226400; format: binding
T16 construct: purchased Eurofins Panlabs Discovery Services Taiwan, Ltd
Method: as §1, §2, §3, §4, §5, §6

[26] = molecular target: T17, Tachykinin NK1 (Homo sapiens, UniProt P25103); assay: Off-target 255520; format: binding
T17 construct: purchased Eurofins Panlabs Discovery Services Taiwan, Ltd
T17 sequence (P25103 whole entry): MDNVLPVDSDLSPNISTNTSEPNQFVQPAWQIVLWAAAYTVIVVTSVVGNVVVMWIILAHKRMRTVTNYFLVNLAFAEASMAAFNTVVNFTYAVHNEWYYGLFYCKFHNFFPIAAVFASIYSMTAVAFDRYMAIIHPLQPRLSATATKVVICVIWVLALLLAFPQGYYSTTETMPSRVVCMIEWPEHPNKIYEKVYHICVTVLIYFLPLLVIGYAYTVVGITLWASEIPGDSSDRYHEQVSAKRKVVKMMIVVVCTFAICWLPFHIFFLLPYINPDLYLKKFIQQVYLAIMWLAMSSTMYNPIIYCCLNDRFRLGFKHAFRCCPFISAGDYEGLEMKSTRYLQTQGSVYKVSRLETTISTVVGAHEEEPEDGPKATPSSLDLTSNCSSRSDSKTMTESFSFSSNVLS
Method: as §1, §2, §3, §4, §5, §6

[27] = molecular target: T18, Chemokine CXCR2 (IL-8RB) (Homo sapiens, UniProt P25025); assay: Off-target 244500; format: binding
T18 construct: purchased Eurofins Panlabs Discovery Services Taiwan, Ltd
T18 sequence (P25025 whole entry): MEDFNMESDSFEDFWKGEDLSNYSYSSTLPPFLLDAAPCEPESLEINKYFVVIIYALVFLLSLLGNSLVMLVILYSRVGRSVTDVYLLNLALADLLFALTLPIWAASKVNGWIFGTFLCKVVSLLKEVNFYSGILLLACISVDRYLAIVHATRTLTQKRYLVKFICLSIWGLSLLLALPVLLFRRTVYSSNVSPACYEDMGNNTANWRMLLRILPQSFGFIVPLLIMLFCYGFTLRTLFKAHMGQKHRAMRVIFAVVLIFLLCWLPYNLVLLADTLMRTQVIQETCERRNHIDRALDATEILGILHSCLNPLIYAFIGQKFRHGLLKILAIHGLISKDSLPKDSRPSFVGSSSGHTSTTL
Method: as §1, §2, §3, §4, §5, §6

[28] = molecular target: T19, Cannabinoid CB1 (Homo sapiens, UniProt P21554); assay: Off-target 217030; format: binding
T19 construct: purchased Eurofins Panlabs Discovery Services Taiwan, Ltd
Method: as §1, §2, §3, §4, §5, §6

[29] = molecular target: T20, Serotonin (5-Hydroxytryptamine) 5-HT3 (Homo sapiens, UniProt P46098); assay: Off-target 271910; format: binding
T20 construct: purchased Eurofins Panlabs Discovery Services Taiwan, Ltd
Method: as §1, §2, §7, §8, §9, §4

Structure (SMILES): O=P(O)(O)O[C@H]1[C@H](OP(=O)(O)O)[C@@H](OP(=O)(O)O)[C@H](OP(=O)(O)O)[C@@H](OP(=O)(O)O)[C@H]1OP(=O)(O)O [IP6, myo-Inositol hexakisphosphate]
- reduction in serum calcium levels [1]: 17%

Structure (SMILES): COCCOCCO[C@@H]1[C@@H](OP(=O)(O)O)[C@H](OCCOCCOC)[C@@H](OP(=O)(O)O)[C@@H](OP(=O)(O)O)[C@H]1OP(=O)(O)O [(OEG2)2-IP4, 4,6-Di-O-(methoxy-diethyleneglycol)-myo-inositol-1,2,3,5-tetrakis(phosphate)]
- % Inhibition [2]: -7%
- inhibition at 10 µM [3]: -17%
- inhibition at 10 µM [4]: -6%
- inhibition at 10 µM [5]: 0%
- inhibition at 10 µM [6]: 6%
- inhibition at 10 µM [7]: 0%
- inhibition at 10 µM [8]: -1%
- % bone area compared with vehicle ([9]; 5, 15, 50 mg/kg/day): significantly higher
- osteoblast and osteoclast morphology ([9]; rat, in vivo): not impacted
- osteoid area ([9]; treatment groups): distinct increase in the osteoid area
- mineralized trabecular bone area ([9]; various doses tested): unchanged mineralized trabecular bone area
- % Inhibition [10]: -14%
- inhibition at 10 µM [11]: 5%
- inhibition at 10 µM [12]: 4%
- % Inhibition [13]: -7%
- inhibition at 10 µM [14]: 19%
- inhibition at 10 µM [15]: -23%
- inhibition at 10 µM [16]: 4%
- inhibition at 10 µM [17]: 3%
- % Inhibition [18]: 5%
- inhibition at 10 µM [19]: 4%
- % Inhibition [20]: 7%
- inhibition at 10 µM [21]: -7%
- viability at 1 µM ([22]; 1 µM): 108%
- viability at 10 µM ([22]; 10 µM): 106%
- inhibition at 10 µM [23]: -2%
- inhibition at 10 µM [24]: 6%
- inhibition at 10 µM [25]: 4%
- inhibition at 10 µM [26]: -14%
- inhibition at 10 µM [27]: 6%
- inhibition at 10 µM [28]: -7%
- inhibition at 10 µM [29]: 8%
